In patent US10822383B2, “Polypeptides capable of producing glucans having alpha-1,2 branches and use of the same” (E I DU PONT DE NEMOURS AND COMPANY, priority 2015, dated 2020):

B1: GTFJ18T1: N-terminal-truncated form of GTFJ18 (first 1664 residues removed), SEQ ID NO:27 (protein)
chain: VKGDKRTIDGVLYTFDKESGERKGLDSISVLPTNGQYTTDKAQNWYYQVDGENVKGLYTNNDGQLRYFDLTTGVQTKGNFVTIGNDTYYFTKEQGDGQIVSEVVSGHYGTVQLSDNSSAWVYRGANDQILKGLQNINGRLQYFDLTTGAQLKGGAANYDGNLYYFESSDGNLVSKIQQSYSTGNYVTDGDKVTYADEQNNQVTGLALIDDQLQYFDPSDGRQVKNEQVIVDGVTYYFDKNGNGQYLFTNTATMSTNEFAKHSAAYSNDSSSFKNTIDGFLTADTWYRPKDILENGQTWVVSSTNDVRPLITVWWLNKDVQVNYSNFMKQNGLLDTSSQFNLQSDQYDLNVAAQKVQVAIEKRISKEKSTDWLKDLLFEAHEDTPSFVKQQFIWNKDSEYQGQGDAWFQGGYLKYGNNELTPTTNSDYRESGNTLDFLLANDVDNSNPAVQAENLNWLHYLMNFGTITANDDDANFDSIRIDAVDFIDNDAIQRTYDYMRDAYKVDASEDNANKHISLVEAGLDAGTSTIKSDALVESNFREAATLSLANQSGENSSLTNMLQDIDGGQIIADHANNATENESTPNYSIIHAHDKGIQEKVGAAITDVTGADWTNFTDDQLKEGLAAYYQDQRSTNKKYNIYNLPSIYALMLTNKDTVPRVYYGDMYQDDGQYMEKQSIYYDAIVSLMNTRKSYVSGGQTMDVDEHGLLKSVRFGKDAMTASDLGTNETRTEGVGVLVGNDSSLKLNDSDTVTLEMGAAHKNQKYRAALLTTSDGIVTYDADNDAPTIWTDDRGTLTFSNKEIAGQDYTSVQGFANSQVSGYLAVWVPVGASDDQDVRTAALTDANLDDKVLHSNAALDSNLIYEGFSNFQPKATTNDELTNVVIAKNANLFEKWGITSFEMAPQYRSSGDHTFLDSTIDNGYAFTDRYDLGFETPTKYGTDKDLRTAIKALHQSNMQVMADVVDNQVYNLSGQEVVSASRAGVYGNDVSTGFGTQLYAVNSVGGGKYQAQYGGEYLNELKQQYPDLFEAKTYDYWVKNYSNDGSDPYYTLSQNTRKDMPSSEVIKQWSAKYMNGTNVLGNGMGYVLKDWNTGEYFKIGEKNADFITN
modifications: Leuconostoc mesenteroides

How the values were obtained:
[1] = Alpha-1,2 branching reaction with GTF9905 on products of the GTF8117 reaction; format: biochemical; conditions: 1.13 U/mL GTF9905, 175 g/L sucrose, 30° C., 76.2 h
Procedure: First, a reaction was performed to prepare glucan that was used in the second part of this Example as a substrate for 1,2-branching enzyme. A reaction mixture (20 mL) comprised of sucrose (488 g/L) and GTF8117 (Example 4, 9.4 U/mL) was adjusted to pH 5.5 with 6.0 N hydrochloric acid and stirred at 47° C. Aliquots were withdrawn at predetermined times and quenched by heating at 90° C. for 20 min. The resulting heat-treated aliquots were centrifuged and the supernatants analyzed by HPLC to determine the concentration of sucrose, glucose, fructose, leucrose, oligosaccharides and polysaccharides. After 6 h, the reaction mixture was heated to 90° C. for 30 minutes, and an aliquot of the heat-treated reaction mixture was centrifuged and the resulting supernatant analyzed for soluble monosaccharides, oligosaccharides and polysaccharides (DP8+) (Table 1). The DP8+ polysaccharides appeared to contain about 100% alpha-1,6 linkages.
A second reaction was then performed to conduct alpha-1,2 branching from the products of the first reaction. […] The resulting heat-treated aliquots were centrifuged and the supernatants analyzed by HPLC to determine the concentration of sucrose, glucose, fructose, leucrose, oligosaccharides and polysaccharides. […]

[2] = Alpha-1,2 branching activity of GTFJ18 / GTFJ18T1 on a glucan backbone (NMR linkage profile of product); format: biochemical; conditions: for alpha-1,2 linkages in the product of the branching reaction / alpha-1,6 linkages in the product of the branching reaction: 10% (v/v) crude cell extract, 40 g/L sucrose, 22 hours, NMR
From the text: The alpha-1,2 branching activities of each enzyme (GTFJ18 or GTFJ18T1) were individually tested on the glucan product of the glucosyltransferase, GTF5604, which is derived from Streptococcus criceti HS-6 (GENBANK® Acc. No. WP_004226213.1, old gi: 357235604) and disclosed in International Pat. Appl. Publ. No. WO2015/183714 (also referred to therein as SG1018 glucosyltransferase or GtfHS6). GTF5604 (SEQ ID NO:33) has 1338 amino acids with the N-terminal 36 amino acids deduced as its signal peptide by the SignalP 4.0 program. The native nucleotide sequence (positions 1289627-1293643 of GENBANK Acc. No. NZ_AEUV02000002.1) encoding full length GTF5604 (SEQ ID NO:33) including its native signal peptide was synthesized by GenScript and cloned into the SpeI and HindIII sites of the replicative Bacillus expression plasmid pHYT (Takara Bio Inc., Otsu, Japan) under the B. subtilis aprE promoter. The construct was first transformed into E. coli DH10B and selected on ampicillin (100 μg/mL) plates. The confirmed clone, pDCQ918, was then transformed into Bacillus subtilis strain BG6006 (amyE::xylRPxylAcomK-ermC, degUHy32, oppA, ΔspoIIE3501, ΔaprE, ΔnprE, Δepr, ΔispA, Δbpr, Δvpr, ΔwprA, Δmpr-ybfJ, ΔnprB) and selected on tetracycline (12.5 μg/mL) plates, after which the transformed strain, termed as SG1018, was grown in LB containing 10 μg/mL tetracycline first, followed by subculturing into Grant's II medium containing 12.5 μg/mL tetracycline and growth at 37° C. for 2-3 days. The cultures were spun at 15,000×g for 30 min at 4° C. and the supernatant was filtered through 0.22-μm filters. A glucan synthesis reaction was set up containing 10% (v/v) of the SG1018 supernatant with 100 g/L sucrose, 10 mM sodium citrate pH 5 and 1 mM CaCl2. […] The glucan synthesis reaction was subjected to heat inactivation at 95° C. for 30 min.
A branching reaction was set up with 70% (v/v) of the heat-inactivated glucan synthesis reaction. The enzyme being tested for branching activity off of the above glucan product, GTFJ18 or GTFJ18T1, was provided as 10% (v/v) of the above-prepared crude cell extract from EC0059 or EC0059T1, respectively, with 40 g/L sucrose. Each branching reaction was incubated at 37° C. or 30° C. for 22 hours and the products were analyzed by HPLC for sucrose consumption and NMR for linkage profile.
NMR data were acquired on an Agilent DD2 spectrometer (Agilent Technologies, Inc., Santa Clara, Calif.) operating at 500 MHz for ^1H using a 5-mm cryogenic triple-resonance pulsed-field gradient probe. Water suppression was obtained by carefully placing the observe transmitter frequency on resonance for the residual water signal in a “presat” experiment, and then using the first slice of a NOESY experiment with a full phase cycle (multiple of 32) and a mix time of 10 ms. One-dimensional ^1H spectra were acquired with a spectral width of 6410 Hz, acquisition time of 5.1 s, 65536 data points, 4 s pre-saturation and a 90-degree observe pulse. Signal averaging typically involved accumulation of 64 scans. Sample temperature was maintained at 25° C.
Liquid samples were prepared by adding either 50 or 100 μL of completed branching reactions to a 5-mm NMR tube along with 60 μL of D2O containing 12.4 mM 4,4-dimethyl-4-silapentane-1-sulfonic acid sodium salt (DSS) as an internal chemical shift reference, and the balance (450 or 400 μL) of D2O for a total volume of […]. The DSS methyl resonance was set to 0 ppm. […]

| Molecule | alpha-1,2 branching activity (in words) [1] | alpha-1,2 linkages in the product of the branching reaction [2] [%] | alpha-1,6 linkages in the product of the branching reaction [2] [%] | alpha-1,2 branching activity (in words) ([2]; compared to full length GTFJ18) |
| --- | --- | --- | --- | --- |
| GTF9905: Fructobacillus tropaeoli glucosyltransferase, SEQ ID NO:4, mature form positions 36-1672 | significant alpha-1,2 branching activity |  |  |  |
| GTFJ18: full length glucosyltransferase from Leuconostoc mesenteroides J18, SEQ ID NO:1 (identical to SEQ ID NO:13) |  | 0.6 | 97 |  |
| B1 |  | 18 | 82 | much higher alpha-1,2 branching activity |
